Experimental findings from paper PMC12064818, “A general assay platform to study protein pharmacology using ligand-dependent structural dynamics” (Nature Communications, 2025) are described below.

The experiment deals with T1, FLuc-C-HiBiT (Photinus pyralis, UniProt P08659).
T1 construct: firefly luciferase with C-terminal HiBiT tag, E. coli expressed
The experiment can be described thus: biochemical. As to conditions: enzyme activity, 10 uM ATP; read-out: IC50 or SDR50 (mM) / FLuc E.

T1 sequence (P08659 whole entry, looked up): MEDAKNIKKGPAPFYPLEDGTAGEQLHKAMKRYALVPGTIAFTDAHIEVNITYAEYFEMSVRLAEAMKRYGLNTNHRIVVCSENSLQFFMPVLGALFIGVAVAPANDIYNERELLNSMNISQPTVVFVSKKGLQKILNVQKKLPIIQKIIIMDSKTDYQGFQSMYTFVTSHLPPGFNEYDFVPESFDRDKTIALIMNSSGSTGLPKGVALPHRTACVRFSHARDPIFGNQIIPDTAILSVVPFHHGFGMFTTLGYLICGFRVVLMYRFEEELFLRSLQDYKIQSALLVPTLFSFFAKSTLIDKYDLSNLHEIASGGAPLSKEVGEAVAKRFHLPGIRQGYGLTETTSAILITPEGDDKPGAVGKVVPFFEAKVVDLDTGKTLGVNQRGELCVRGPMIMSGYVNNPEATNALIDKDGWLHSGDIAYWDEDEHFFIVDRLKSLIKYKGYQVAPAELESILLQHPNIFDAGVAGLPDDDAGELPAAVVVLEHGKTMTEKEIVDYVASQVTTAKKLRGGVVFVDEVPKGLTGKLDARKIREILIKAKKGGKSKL

As for `CCCCC(=O)Nc1cccc(-c2nc3ccccc3s2)c1` [NCGC00119159-01], the IC50 came out at 0.0111 mM.

Regarding `CCOc1ccccc1C(=O)Nc1cccc(-c2nc3ccccc3s2)c1` [NCGC00119161-01], the IC50 came to 0.0111 mM.

On to `CCC(CC)C(=O)Nc1cccc(-c2nc3ccccc3s2)c1` [NCGC00119163-01], for which the IC50 came to 0.0157 mM.

On to `CCOc1ccccc1C(=O)Nc1nc2c(s1)CC(C)CC2` (stereo not shown) [NCGC00119172-01], for which the IC50 is 0.00442 mM.

On to `Cc1c(C(=O)Nc2cccc(-c3nc4ccccc4s3)c2)oc2ccccc12` [NCGC00119181-01], for which the IC50 is greater than 0.03 mM.

As to `Cc1c(C(=O)Nc2cccc(-c3nc4ccccc4s3)c2)oc2ccc(F)cc12` [NCGC00119183-01], the IC50 is greater than 0.03 mM.

`Cc1ccc2oc(C(=O)Nc3cccc(-c4nc5ccccc5s4)c3)c(C)c2c1` [NCGC00119185-01]: the IC50 came out at 0.00989 mM.

Take `COc1ccccc1-c1noc(-c2ccc(N3CCN(C)CC3)c([N+](=O)[O-])c2)n1` [NCGC00119222-01]: the IC50 was 0.00495 mM.

`CC(C)(C)C1CCc2nc(NC(=O)c3cccc(Cl)c3)sc2C1` (stereo not shown) [NCGC00119231-01]: the IC50 was determined as 0.00248 mM.

With `COc1ccc(-c2noc(-c3ccc(N4CCN(C)CC4)c([N+](=O)[O-])c3)n2)cc1` [NCGC00119282-01], the IC50 was 0.0157 mM.

In the case of `Cc1ccccc1-c1noc(-c2ccc(N3CCCC3)c([N+](=O)[O-])c2)n1` [NCGC00119417-01], the IC50 is 0.0111 mM.

Take `O=C(COc1ccccc1)Nc1nnc([S+](=O)([O-])Nc2ccccc2)s1` [NCGC00120845-01]: the IC50 stood at 0.014 mM.

For the compound `Cc1cccc(CCNC(=O)c2sc3nc4n(c(=O)c3c2C)CCCC4)c1` [NCGC00121158-01], the IC50 is greater than 0.03 mM.

Consider `Cc1ccc(NC(=O)c2oc3ccc4c(c3c2C)C(=O)CC(C)(C)O4)c(C)c1` [NCGC00122260-01], for which the IC50 amounted to 0.00989 mM.

Turning to `Cc1nnc(SCc2ccccc2)c2cc3sccc3n12` [NCGC00122277-01], the IC50 came out at 0.014 mM.

`CCOc1cccc2cc(-c3nc(-c4ccccc4C)no3)c(=O)oc12` [NCGC00123322-01]: the IC50 was 0.00313 mM.

Take `O=c1oc2ccc(F)cc2cc1-c1nc(-c2cccs2)no1` [NCGC00123380-01]: the IC50 turned out to be 0.00313 mM.

In the case of `Cc1ccc2oc(=O)c(-c3nc(-c4cccs4)no3)cc2c1` [NCGC00123382-01], the IC50 was greater than 0.03 mM.

With `COc1ccc(-c2cn3nc(N4CCCC(C(=O)NCc5ccccc5OC)C4)sc3n2)cc1` (stereo not shown) [NCGC00123654-01], the IC50 was 0.0111 mM.

`O=C(NCc1cccc(Cl)c1)C1CCCN(c2nn3cc(-c4ccc(F)cc4)nc3s2)C1` (stereo not shown) [NCGC00123714-01]: the IC50 was 0.00881 mM.

Take `CCc1ccc(CNC(=O)C2CCCN(c3nn4cc(-c5ccc(F)cc5)nc4s3)C2)cc1` (stereo not shown) [NCGC00123722-01]: the IC50 was greater than 0.03 mM.

Consider `Cc1ccc(CSc2nc3cccnc3n2Cc2ccc(C(=O)NCc3ccco3)cc2)cc1` [NCGC00123842-01], for which the IC50 was 0.000624 mM.

For the compound `Cc1ccc(CSc2nc3cccnc3n2Cc2ccc(C(=O)NC3CC3)cc2)cc1` [NCGC00123844-01], the IC50 was determined as 0.000394 mM.

`COc1ccc(NC(=O)Cn2c(SCc3ccc(C)cc3)nc3cccnc32)cc1OC` [NCGC00123978-01]: the IC50 was determined as 0.0007 mM.

With `COc1cc(OC)c(NC(=O)Cn2c(SCc3ccccc3F)nc3cccnc32)cc1Cl` [NCGC00124034-02], the IC50 is greater than 0.03 mM.

For `Cc1ccc(Nc2ncnc3c2nc2n3CCCC2)c(Br)c1` [NCGC00124653-01], the IC50 was 0.00495 mM.

For the compound `CCc1cccc(NC(=O)c2cc(-c3ccccc3)n[nH]2)c1` [NCGC00125661-01], the IC50 turned out to be 0.00279 mM.

As for `CC1CCCN(C(=O)c2cc3ccc4cccnc4c3[nH]2)C1` (stereo not shown) [NCGC00126906-01], the IC50 was 0.000556 mM.

With `O=C(c1cc2ccc3cccnc3c2[nH]1)N1CCCCC1` [NCGC00126930-01], the IC50 was 0.00157 mM.

Consider `CCc1ccc(NC(=O)c2cc3ccccn3n2)cc1` [NCGC00127901-01], for which the IC50 is 0.00176 mM.

`COc1cccc(-n2nnc(-c3nc(-c4ccccc4F)no3)c2C)c1` [NCGC00128608-01]: the IC50 was found to be 0.00556 mM.

As to `Cc1c(Cl)cccc1-n1nnc(-c2nc(-c3ccc4c(c3)OCO4)no2)c1C` [NCGC00128638-01], the IC50 stood at 0.0111 mM.

`CCc1cccc(-n2nnc(-c3nsc(NC(=O)c4cccs4)n3)c2C)c1` [NCGC00129048-01]: the IC50 is greater than 0.03 mM.

With `Cc1cn2c(=O)cc(COC(=O)c3ccccc3F)nc2s1` [NCGC00129878-01], the IC50 was 0.00624 mM.

As to `COc1ccccc1NC(=O)CN1C(=O)CC(c2ccc(C)c(C)c2)=Nc2ccccc21` [NCGC00130405-01], the IC50 stood at 0.0124 mM.

Consider `Cc1ccc(OCC(=O)Nc2cccc(C(=O)OCc3cc(=O)n4nc(C)sc4n3)c2)cc1` [NCGC00130504-01], for which the IC50 was 0.007 mM.

For `Cc1cn2c(=O)cc(COC(=O)c3cccc(NC(=O)COc4ccccc4Cl)c3)nc2s1` [NCGC00130619-01], the IC50 worked out at 0.007 mM.

`COc1cccc(CN2CCc3nc(Nc4ccc5c(c4)OCCO5)ncc3C2)c1` [NCGC00131180-01]: the IC50 came to 0.0111 mM.

Consider `Cc1ccc(NC(=O)c2ncoc2-c2ccco2)cc1Cl` [NCGC00131543-01], for which the IC50 stood at 0.00624 mM.

As to `COC(=O)C1CCN(c2csc3ccc(C)cc3c2=O)CC1` [NCGC00132290-01], the IC50 was 0.00785 mM.

In the case of `CCN1CCN(c2csc3ccc(Cl)cc3c2=O)CC1` [NCGC00132328-01], the IC50 was found to be 0.0124 mM.

On to `CC1CCCCN1c1csc2ccc(F)cc2c1=O` (stereo not shown) [NCGC00132384-01], for which the IC50 is 0.00881 mM.

In the case of `CC1CCc2nc3ncn(Cc4ccc(Cl)cc4)c(=O)c3cc2C1` (stereo not shown) [NCGC00132725-01], the IC50 is greater than 0.03 mM.

As to `Cc1ccccc1CCNC(=O)c1ccc2c(c1)nc1n2CCCCC1` [NCGC00133334-01], the IC50 was determined as 0.000881 mM.

Take `O=C(NCCc1ccccc1Cl)c1ccc2c(c1)nc1n2CCCCC1` [NCGC00133356-01]: the IC50 came out at 0.00111 mM.

Consider `O=C(NCCc1ccccc1)c1ccc2c(c1)nc1n2CCOC1` [NCGC00133386-01], for which the IC50 is 0.00881 mM.

Take `Cc1ccccc1CCNC(=O)c1ccc2c(c1)nc1n2CCOC1` [NCGC00133426-01]: the IC50 was determined as 0.00495 mM.

For `O=C(NCCc1ccccc1Cl)c1ccc2c(c1)nc1n2CCOC1` [NCGC00133432-01], the IC50 came to 0.007 mM.

As for `CC(C)CCNC(=O)c1ccc2c(c1)nc1n2CCCCC1` [NCGC00133608-01], the IC50 worked out at 0.00989 mM.

Turning to `CCN(CC)[S+](=O)([O-])c1ccc2nc(NC(=O)c3cccnc3)sc2c1` [NCGC00134045-01], the IC50 was found to be 0.0124 mM.

`Cc1ccc(C)c(N2CCN(C(=O)C3CCN(c4nc(-c5ccc(C(C)C)cc5)no4)CC3)CC2)c1` [NCGC00134060-01]: the IC50 came out at 0.0111 mM.

Regarding `Cc1ccc(NC(=O)C2CCN(c3nc(-c4ccc(C(C)C)cc4)no3)CC2)c(Cl)c1` [NCGC00134062-01], the IC50 came to 0.014 mM.

For the compound `Cc1ccc2nc(-c3ccc(NC(=O)c4ccc([S+](C)(=O)[O-])cc4)cc3)sc2c1` [NCGC00134160-01], the IC50 is greater than 0.03 mM.

`CCSc1ccccc1C(=O)Nc1ccc(-c2nc3ccccc3s2)c(O)c1` [NCGC00134162-01]: the IC50 was greater than 0.03 mM.

As for `CC[S+](=O)([O-])c1ccccc1C(=O)Nc1ccc(-c2nc3ccccc3s2)cc1` [NCGC00134164-01], the IC50 was greater than 0.03 mM.

As for `CC[S+](=O)([O-])c1cccc(C(=O)Nc2ccc(-c3nc4ccccc4s3)c(O)c2)c1` [NCGC00134166-03], the IC50 is 0.00442 mM.

For `O=C(Nc1nc2c(F)cc(F)cc2s1)c1ccc2c(c1)OCCO2` [NCGC00134168-01], the IC50 stood at 0.00176 mM.

As to `O=c1oc2c(CN3CCCC3)c(O)ccc2cc1-c1ccccc1` [NCGC00134332-01], the IC50 is greater than 0.03 mM.

Consider `Cc1ccc(C)c(N2CCN(C(=O)c3ccc(NC(=O)c4nsc5ccccc45)cc3)CC2)c1` [NCGC00134456-01], for which the IC50 was 0.00989 mM.

As for `COc1ccc(-c2cn3nc(SCC(=O)Nc4cc(C)cc(C)c4)ccc3n2)cc1` [NCGC00134460-01], the IC50 is 0.00556 mM.

Turning to `COc1ccc(-c2cn3nc(SCC(=O)Nc4ccccc4F)ccc3n2)cc1` [NCGC00134464-01], the IC50 amounted to 0.00157 mM.

As for `CCCCN(C)[S+](=O)([O-])c1ccc(C(=O)Nc2ccc(-c3nc4ccc(C)cc4s3)cc2)cc1` [NCGC00134689-02], the IC50 is greater than 0.03 mM.

Regarding `Cc1ccc(C(=O)Nc2ccc(-c3nc4ccccc4s3)c(O)c2)c(C)c1` [NCGC00134691-01], the IC50 was greater than 0.03 mM.

On to `COc1cccc(C(=O)Nc2ccc(-c3nc4ccc(C)cc4s3)cc2)c1OC` [NCGC00134693-01], for which the IC50 is greater than 0.03 mM.

Turning to `CSc1ccc(C(=O)Nc2ccc(-c3nc4ccccc4s3)c(O)c2)cc1` [NCGC00134695-01], the IC50 is greater than 0.03 mM.

For `CCSc1ccc(C(=O)Nc2ccc(-c3nc4ccc(C)cc4s3)cc2)cc1` [NCGC00134697-01], the IC50 was greater than 0.03 mM.

`Cc1ccccc1Cn1cccc(C(=O)Nc2nc3ccccc3s2)c1=O` [NCGC00134725-01]: the IC50 is 0.000881 mM.

`CC(C)Oc1ccc(C(=O)Nc2nnc3n2CCS3)cc1` [NCGC00134921-01]: the IC50 amounted to 0.0176 mM.

For `O=C(COc1ccc(Cl)cc1)Nc1ccc(O)c(-c2nc3ccccc3s2)c1` [NCGC00135616-01], the IC50 is greater than 0.03 mM.

Regarding `COc1ccc(C(=O)Nc2ccccc2-c2nc3ccccc3s2)c(OC)c1` [NCGC00135640-01], the IC50 was greater than 0.03 mM.

`O=C(Nc1ccccc1-c1nc2ccccc2s1)c1cc(Cl)cc(Cl)c1` [NCGC00135642-01]: the IC50 was greater than 0.03 mM.

For `COc1ccc(-c2nc(C)c(CCNC(=O)c3cccs3)s2)cc1` [NCGC00135787-01], the IC50 was found to be 0.0111 mM.

As to `Cc1ccc(-c2nc(C)c(CCNC(=O)c3cccs3)s2)cc1` [NCGC00135815-01], the IC50 came out at 0.0176 mM.

For the compound `COc1ccc(-c2nc(C)c(CCNC(=O)c3c(F)cccc3F)s2)cc1` [NCGC00135823-01], the IC50 was greater than 0.03 mM.

Regarding `O=C(CSc1nccn1Cc1ccco1)Nc1ccc(OC(F)(F)F)cc1` [NCGC00136029-01], the IC50 turned out to be 0.0124 mM.

Regarding `O=C(CSc1nnc2[nH]c(=O)cc(-c3ccccc3)n12)Nc1ccc(OC(F)(F)F)cc1` [NCGC00136515-01], the IC50 was 0.007 mM.
